{"source": "the supplement of paper PMC10307832", "test_in_all_cases": "relative viability (nuclei count vs DMSO), 5 days (fraction); higher = more cells survive", "key": {"[1]": {"system": "NCI-H1792", "summary_of_the_method": "(§1)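 Lung cancer cell lines were seeded in 1536-well plates and dosed by pin tool the next day, with either a single drug or a fixed anchor-drug dose combined with five library-drug doses (not always all listed) spaced in √10 steps. Five days later, one step fixed the cells and stained their nuclei (final 0.05% Triton X-100, 1% formaldehyde, 1 ug/ml Hoechst), and nuclei were counted on 4× images. Relative viability is the nuclei count in treated wells divided by the count in vehicle wells, and each value is the median of duplicate plates.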"}, "[2]": {"system": "HCC-366", "summary_of_the_method": "as §1"}, "[3]": {"system": "NCI-H1993", "summary_of_the_method": "as §1"}, "[4]": {"system": "NCI-H2170", "summary_of_the_method": "as §1"}, "[5]": {"system": "NCI-H522", "summary_of_the_method": "as §1"}, "[6]": {"system": "HARA", "summary_of_the_method": "as §1"}, "[7]": {"system": "NCI-H1355", "summary_of_the_method": "as §1"}, "[8]": {"system": "LOU-NH91", "summary_of_the_method": "as §1"}, "[9]": {"system": "NCI-H661", "summary_of_the_method": "as §1"}, "[10]": {"system": "NCI-H2087", "summary_of_the_method": "as §1"}, "[11]": {"system": "NCI-H1395", "summary_of_the_method": "as §1"}, "[12]": {"system": "NCI-H2009", "summary_of_the_method": "as §1"}, "[13]": {"system": "SK-MES-1", "summary_of_the_method": "as §1"}, "[14]": {"system": "BEN", "summary_of_the_method": "as §1"}, "[15]": {"system": "EKVX", "summary_of_the_method": "as §1"}, "[16]": {"system": "NCI-H1734", "summary_of_the_method": "as §1"}, "[17]": {"system": "NCI-H1437", "summary_of_the_method": "as §1"}, "[18]": {"system": "HCC-827", "summary_of_the_method": "as §1"}, "[19]": {"system": "NCI-H2342", "summary_of_the_method": "as §1"}, "[20]": {"system": "NCI-H647", "summary_of_the_method": "as §1"}, "[21]": {"system": "SK-LU-1", "summary_of_the_method": "as §1"}, "[22]": {"system": "NCI-H2405", "summary_of_the_method": "as §1"}}}
{"smiles": "O=c1cc(-c2cccc3c2Sc2ccccc2S3)oc(N2CCOCC2)c1", "note": "+ Nc1nc2[nH]cc(CCc3ccc(C(=O)N[C@@H](CCC(=O)O)C(=O)O)cc3)c2c(=O)[nH]1 [Pemetrexed] (partner 0.2 µM)", "values": [{"measurement": "relative viability", "setting": "[1]; first compound 0.08 µM", "value": 0.75}, {"measurement": "relative viability", "setting": "[1]; first compound 0.253 µM", "value": 1.54}, {"measurement": "relative viability", "setting": "[1]; first compound 0.8 µM", "value": 0.775}, {"measurement": "relative viability", "setting": "[1]; first compound 2.53 µM", "value": 0.776}, {"measurement": "relative viability", "setting": "[1]; first compound 8 µM", "value": 0.729}, {"measurement": "relative viability", "setting": "[2]; first compound 0.08 µM", "value": 0.154}, {"measurement": "relative viability", "setting": "[2]; first compound 0.253 µM", "value": 0.193}, {"measurement": "relative viability", "setting": "[2]; first compound 0.8 µM", "value": 0.167}, {"measurement": "relative viability", "setting": "[2]; first compound 2.53 µM", "value": 0.154}, {"measurement": "relative viability", "setting": "[2]; first compound 8 µM", "value": 0.155}, {"measurement": "relative viability", "setting": "[3]; first compound 0.08 µM", "value": 0.588}, {"measurement": "relative viability", "setting": "[3]; first compound 0.253 µM", "value": 0.702}, {"measurement": "relative viability", "setting": "[3]; first compound 0.8 µM", "value": 0.567}, {"measurement": "relative viability", "setting": "[3]; first compound 2.53 µM", "value": 0.497}, {"measurement": "relative viability", "setting": "[3]; first compound 8 µM", "value": 0.613}, {"measurement": "relative viability", "setting": "[4]; first compound 0.08 µM", "value": 0.268}, {"measurement": "relative viability", "setting": "[4]; first compound 0.253 µM", "value": 0.271}, {"measurement": "relative viability", "setting": "[4]; first compound 0.8 µM", "value": 0.292}, {"measurement": "relative viability", "setting": "[4]; first compound 2.53 µM", "value": 0.256}, {"measurement": "relative viability", "setting": "[4]; first compound 8 µM", "value": 0.262}, {"measurement": "relative viability", "setting": "[5]; first compound 0.08 µM", "value": 0.844}, {"measurement": "relative viability", "setting": "[5]; first compound 0.253 µM", "value": 1.13}, {"measurement": "relative viability", "setting": "[5]; first compound 0.8 µM", "value": 0.851}, {"measurement": "relative viability", "setting": "[5]; first compound 2.53 µM", "value": 1.03}, {"measurement": "relative viability", "setting": "[5]; first compound 8 µM", "value": 1.12}, {"measurement": "relative viability", "setting": "[6]; first compound 0.08 µM", "value": 0.24}, {"measurement": "relative viability", "setting": "[6]; first compound 0.253 µM", "value": 0.227}, {"measurement": "relative viability", "setting": "[6]; first compound 0.8 µM", "value": 0.228}, {"measurement": "relative viability", "setting": "[6]; first compound 2.53 µM", "value": 0.251}, {"measurement": "relative viability", "setting": "[6]; first compound 8 µM", "value": 0.286}, {"measurement": "relative viability", "setting": "[7]; first compound 0.08 µM", "value": 1.11}, {"measurement": "relative viability", "setting": "[7]; first compound 0.253 µM", "value": 1.15}, {"measurement": "relative viability", "setting": "[7]; first compound 0.8 µM", "value": 0.898}, {"measurement": "relative viability", "setting": "[7]; first compound 2.53 µM", "value": 0.995}, {"measurement": "relative viability", "setting": "[7]; first compound 8 µM", "value": 1.06}, {"measurement": "relative viability", "setting": "[8]; first compound 0.08 µM", "value": 0.332}, {"measurement": "relative viability", "setting": "[8]; first compound 0.253 µM", "value": 0.34}, {"measurement": "relative viability", "setting": "[8]; first compound 0.8 µM", "value": 0.367}, {"measurement": "relative viability", "setting": "[8]; first compound 2.53 µM", "value": 0.397}, {"measurement": "relative viability", "setting": "[8]; first compound 8 µM", "value": 0.31}, {"measurement": "relative viability", "setting": "[9]; first compound 0.08 µM", "value": 0.9}, {"measurement": "relative viability", "setting": "[9]; first compound 0.253 µM", "value": 0.942}, {"measurement": "relative viability", "setting": "[9]; first compound 0.8 µM", "value": 0.962}, {"measurement": "relative viability", "setting": "[9]; first compound 2.53 µM", "value": 0.874}, {"measurement": "relative viability", "setting": "[9]; first compound 8 µM", "value": 0.899}, {"measurement": "relative viability", "setting": "[10]; first compound 0.08 µM", "value": 0.669}, {"measurement": "relative viability", "setting": "[10]; first compound 0.253 µM", "value": 0.662}, {"measurement": "relative viability", "setting": "[10]; first compound 0.8 µM", "value": 0.726}, {"measurement": "relative viability", "setting": "[10]; first compound 2.53 µM", "value": 0.649}, {"measurement": "relative viability", "setting": "[10]; first compound 8 µM", "value": 0.674}, {"measurement": "relative viability", "setting": "[11]; first compound 0.08 µM", "value": 0.842}, {"measurement": "relative viability", "setting": "[11]; first compound 0.253 µM", "value": 0.764}, {"measurement": "relative viability", "setting": "[11]; first compound 0.8 µM", "value": 0.936}, {"measurement": "relative viability", "setting": "[11]; first compound 2.53 µM", "value": 0.765}, {"measurement": "relative viability", "setting": "[11]; first compound 8 µM", "value": 1.09}, {"measurement": "relative viability", "setting": "[12]; first compound 0.08 µM", "value": 1.08}, {"measurement": "relative viability", "setting": "[12]; first compound 0.253 µM", "value": 0.96}, {"measurement": "relative viability", "setting": "[12]; first compound 0.8 µM", "value": 0.983}, {"measurement": "relative viability", "setting": "[12]; first compound 2.53 µM", "value": 0.966}, {"measurement": "relative viability", "setting": "[12]; first compound 8 µM", "value": 0.957}, {"measurement": "relative viability", "setting": "[13]; first compound 0.08 µM", "value": 1.07}, {"measurement": "relative viability", "setting": "[13]; first compound 0.253 µM", "value": 1.07}, {"measurement": "relative viability", "setting": "[13]; first compound 0.8 µM", "value": 0.838}, {"measurement": "relative viability", "setting": "[13]; first compound 2.53 µM", "value": 0.792}, {"measurement": "relative viability", "setting": "[13]; first compound 8 µM", "value": 0.833}, {"measurement": "relative viability", "setting": "[14]; first compound 0.08 µM", "value": 0.72}, {"measurement": "relative viability", "setting": "[14]; first compound 0.253 µM", "value": 0.834}, {"measurement": "relative viability", "setting": "[14]; first compound 0.8 µM", "value": 0.696}, {"measurement": "relative viability", "setting": "[14]; first compound 2.53 µM", "value": 0.801}, {"measurement": "relative viability", "setting": "[14]; first compound 8 µM", "value": 1.07}, {"measurement": "relative viability", "setting": "[15]; first compound 0.08 µM", "value": 0.428}, {"measurement": "relative viability", "setting": "[15]; first compound 0.253 µM", "value": 0.376}, {"measurement": "relative viability", "setting": "[15]; first compound 0.8 µM", "value": 0.381}, {"measurement": "relative viability", "setting": "[15]; first compound 2.53 µM", "value": 0.482}, {"measurement": "relative viability", "setting": "[15]; first compound 8 µM", "value": 0.436}, {"measurement": "relative viability", "setting": "[16]; first compound 0.08 µM", "value": 0.394}, {"measurement": "relative viability", "setting": "[16]; first compound 0.253 µM", "value": 0.45}, {"measurement": "relative viability", "setting": "[16]; first compound 0.8 µM", "value": 0.487}, {"measurement": "relative viability", "setting": "[16]; first compound 8 µM", "value": 0.432}, {"measurement": "relative viability", "setting": "[17]; first compound 0.08 µM", "value": 0.339}, {"measurement": "relative viability", "setting": "[17]; first compound 0.253 µM", "value": 0.354}, {"measurement": "relative viability", "setting": "[17]; first compound 0.8 µM", "value": 0.435}, {"measurement": "relative viability", "setting": "[17]; first compound 2.53 µM", "value": 0.288}, {"measurement": "relative viability", "setting": "[17]; first compound 8 µM", "value": 0.3}, {"measurement": "relative viability", "setting": "[18]; first compound 0.08 µM", "value": 0.231}, {"measurement": "relative viability", "setting": "[18]; first compound 0.253 µM", "value": 0.272}, {"measurement": "relative viability", "setting": "[18]; first compound 0.8 µM", "value": 0.244}, {"measurement": "relative viability", "setting": "[18]; first compound 2.53 µM", "value": 0.264}, {"measurement": "relative viability", "setting": "[18]; first compound 8 µM", "value": 0.228}, {"measurement": "relative viability", "setting": "[19]; first compound 0.08 µM", "value": 0.703}, {"measurement": "relative viability", "setting": "[19]; first compound 0.253 µM", "value": 0.817}, {"measurement": "relative viability", "setting": "[19]; first compound 0.8 µM", "value": 0.718}, {"measurement": "relative viability", "setting": "[19]; first compound 2.53 µM", "value": 0.725}, {"measurement": "relative viability", "setting": "[19]; first compound 8 µM", "value": 0.848}, {"measurement": "relative viability", "setting": "[20]; first compound 0.08 µM", "value": 0.168}, {"measurement": "relative viability", "setting": "[20]; first compound 0.253 µM", "value": 0.149}, {"measurement": "relative viability", "setting": "[20]; first compound 0.8 µM", "value": 0.17}, {"measurement": "relative viability", "setting": "[20]; first compound 2.53 µM", "value": 0.169}, {"measurement": "relative viability", "setting": "[20]; first compound 8 µM", "value": 0.159}, {"measurement": "relative viability", "setting": "[21]; first compound 0.08 µM", "value": 1.1}, {"measurement": "relative viability", "setting": "[21]; first compound 0.253 µM", "value": 1.27}, {"measurement": "relative viability", "setting": "[21]; first compound 0.8 µM", "value": 1.14}, {"measurement": "relative viability", "setting": "[21]; first compound 2.53 µM", "value": 0.885}, {"measurement": "relative viability", "setting": "[21]; first compound 8 µM", "value": 1.03}, {"measurement": "relative viability", "setting": "[22]; first compound 0.08 µM", "value": 0.859}, {"measurement": "relative viability", "setting": "[22]; first compound 0.253 µM", "value": 1.1}, {"measurement": "relative viability", "setting": "[22]; first compound 0.8 µM", "value": 1.06}, {"measurement": "relative viability", "setting": "[22]; first compound 2.53 µM", "value": 0.83}, {"measurement": "relative viability", "setting": "[22]; first compound 8 µM", "value": 1.02}]}
